Where two headings read alike, the source gives them in different places.
Columns and labels:
[1] = system: Salmonella Typhimurium ATCC 14028; test: Antibacterial activity: growth inhibition, OD600 after 24 h (GIC50); type: cell-based
Procedure: Evaluation of antibacterial-inhibitory activity of some substituted 2-amino-1H-imidazoles of the invention was carried out by diluting an overnight culture of Salmonella Typhimurium ATCC 14028 into a liquid medium. 200 μl of the diluted overnight culture was added to each well of a microtiter plate together with different concentrations of the test compound (1/2 dilution series of the compound). After an incubation of 24 hours the optical density at 600 nm of each well was determined with a microtiter plate reader.
Starting from a 40 mM stock solution of each compound in DMSO, two-fold serial dilutions in 100 μl liquid broth per well were prepared in dublicate in sterile transparant microtiter plates. The broth used was TSB 1/20 for measurements at 25° C. and CFA (in case of Salmonella Typhimurium) and LBNS (in case of Pseudomonas aeruginosa) for measurements at 37° C. Subsequently an overnight culture of the bacteria (S. Typhimurium ATCC14028 or P. aeruginosa PA14) was diluted 1/200 into the corresponding liquid broth and 100 μl was added to each well of the microtiterplate resulting in a total amout of 200 μl medium per well. After an incubation of 24 hours the optical density at 600 nm of each well was determined with a microtiter plate reader (VERSAmax, Molecular Devices).
Evaluation of antibacterial-inhibitory activity of some substituted imidazo[1,2-a]pyrimidinium bromide salts of the invention was carried out by diluting an overnight culture of Salmonella Typhimurium ATCC14028 or Pseudomonas aeruginosa PA141/200 into liquid medium. 200 μl of the diluted overnight culture was added to each well of a microtiterplate together with different concentrations of the test compound (1/2 dilution series of the compound). After an incubation of 24 hours the optical density at 600 nm of each well was determined with a microtiter plate reader.

S. Typhimurium ATCC14028 [2] = test: Static peg assay for prevention of biofilm formation (Calgary device, crystal violet); type: cell-based, Salmonella Typhimurium
How it was run: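 Calgary 96-peg device, ca. 10^6 cells of ATCC14028 per well in TSB 1/20 for 24 h at 25° C (or 48 h at 16° C, medium and compound renewed at 24 h), or in CFA broth for 24 h at 37° C, static, with two-fold compound dilutions. Crystal violet stain, acetic acid extraction, OD570. IC50 from 2–3 independent experiments.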

S. Typhimurium ATCC14028 [3] = test: Bioscreen assay: influence on planktonic growth curve; type: cell-based, Salmonella Typhimurium; parameters: key: x: no influence on the planktonic growth at the IC50 for biofilm inhibition; ∘: planktonic growth is retarded at the IC50 for biofilm inhibition; conditions: planktonic growth at the IC50 for biofilm inhibition, 25° C.
From the text: Some of the tested compounds show a concentration range in which biofilm formation is inhibited but no effect on planktonic growth is observed. These compounds are particularly interesting for prevention of biofilm formation since the development of resistance against these compounds is less likely. Table 8 indicates whether the different compounds have an effect on the planktonic growth of the bacteria at the IC50 for biofilm inhibition. To construct Table 8, the effect of the tested compounds on the growth curve of the bacteria was determined at a concentration equal to the IC50 for biofilm inhibition, by using the Bioscreen system available from Oy Growth Curves Ab Ltd). The Bioscreen device from Oy Growth Curves Ab Ltd was used for measuring the influence of the chemical compounds on the planktonic growth of Salmonella Typhimurium and Pseudomonas aeruginosa. The Bioscreen is a computer controlled incubator/reader/shaker that uses 10×10 well microtiter plates and measures light absorbance of each well at a specified wave length in function of time. An overnight culture of S. […] The broth used was TSB 1/20 for the experiments at 16° C. and 25° C. For experiments at 37° C. CFA medium was used for S. […] As a control 3 μl of the appropriate solvent (DMSO or EtOH) was also added to the plate in 3- or 4-fold. The microtiter plate was incubated in the Bioscreen device at 16° C., 25° C. or 37° C. for at least 36 hours, with continious medium shaking. The absorbance of each well was measured at 600 nm each 15 minutes. Excel was used to generate the growth curves for treated the treated wells and the untreated control wells. Some of the compounds show a concentration range in which biofilm formation is inhibited but no effect on the planktonic growth is observed. Table 14 indicates if the different compounds have an effect on the planktonic growth of the bacteria at the IC50 for biofilm inhibition. To construct this table the effect of the compounds on the growth curve of the bacteria was determined at a concentration equal to the IC50 for biofilm inhibtion, by using the Bioscreen system from Oy Growth Curves Ab Ltd.

[4] = system: Pseudomonas aeruginosa PA14; test: Static peg assay for prevention of biofilm formation (Calgary device, crystal violet); type: cell-based; conditions: P. aeruginosa PA14, 25° C.; read-out: IC50 for biofilm inhibition (25° C.)
How it was run: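 P. aeruginosa PA14 overnight TSB culture diluted 1:100 into broth with two-fold compound dilutions, biofilms grown 24 h static on polystyrene pegs of a Calgary device at 25 °C (TSB 1/20), 30 °C or 37 °C (CFA and/or LBNS). Biofilm quantified by crystal violet, extracted with 30% acetic acid, A570.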

S. Typhimurium ATCC14028 [5] = test: Growth inhibition of planktonic cells in the peg assay plate (OD600); type: cell-based, Salmonella Typhimurium; conditions: Salmonella enterica, ATCC14028, 16° C.
S. Typhimurium SL1344 [6] = test: as above; type: cell-based; conditions: Salmonella enterica, SL1344, 16° C.
S. Typhimurium SL1344 [7] = test: Static peg assay for prevention of biofilm formation (Calgary device, crystal violet); type: cell-based; conditions: Salmonella enterica, SL1344, 16° C., read-out: IC50 biofilm inhibition
Procedure: After an incubation period of 24 hours at 25° C. or 37° C. or 48 hours at 16° C. the biofilms were visualized by crystal violet staining. […] Biofilm formation assays were carried out at 16° C., 25° C. and 37° C. […] Subsequently, an overnight culture of S. […] The pegged lid was placed on the microtiter plate and the plate was incubated for 48 hours at 16° C. or for 24 hours at 25° C. without shaking. During this incubation period biofilms were formed on the surface of the pegs. In case of the assay at 16° C., after 24 hours the lid was transferred into a new plate with medium and the specific molecules used for testing. […] The remaining attached bacteria were stained for 30 minutes with 200 μl 0.1% (w/v) crystal violet in an isopropanol/methanol/PBS solution (v/v 1:1:18). Excess stain was rinsed off by placing the pegs in a 96-well plate filled with 200 μl distilled water per well. After the pegs were air dried (30 min), the dye bound to the adherent cells was extracted with 30% glacial acetic acid (200 μl). The OD570 of each well was measured using the VERSAmax microtiter plate reader.

[8] = Salmonella enterica, 25° C., Table 11, read-out: IC50 (biofilm formation)
[9] = Salmonella enterica, 25° C., Table 14, read-out: IC50 biofilm inhibition
[10] = S. Typhimurium ATCC 14028, 25° C., read-out: IC50 for biofilm inhibition (25° C.)
[11] = OD600 after 24 hours of growth, read-out: GIC(50)
[12] = Salmonella enterica, ATCC14028, 16° C., read-out: IC50 biofilm inhibition

| Compound | IC50 ([1]; Salmonella enterica, 25° C.) [µM] | IC50 (S. Typhimurium ATCC14028 [2]; [8]) [µM] | IC50 (S. Typhimurium ATCC14028 [2]; [9]) [µM] | other results |
| --- | --- | --- | --- | --- |
| COc1ccc(CCN2c3nccc[n+]3CC2(O)c2ccc([N+](=O)[O-])cc2)cc1OC (stereo not shown) [R1=2-(3,4-diMeO—Ph)Et, R3=4-NO2-Ph, R4=H, 1-(2-(3,4-dimethoxyphenyl)ethyl)-2-hydroxy-2-(4-nitrophenyl)-2,3-dihydro-1H-imidazo-[1,2-a]pyrimidin-4-ium bromide] | 100 to 200 | 127 | 127 | – |
| COc1ccc(C2(O)C[n+]3cccnc3N2C2CCCCC2)cc1 (stereo not shown) [R1=Cyclohexyl, R3=4-MeO—Ph, R4=H, 1-cyclohexyl-2-hydroxy-2-(4-methoxyphenyl)-2,3-dihydro-1H-imidazo[1,2-a]pyrimidin-4-ium bromide] | 50 to 100 | 112 | 112 | – |
| CSc1ccc(C2(O)C[n+]3cccnc3N2C2CCCCC2)cc1 (stereo not shown) [R1=Cyclohexyl, R3=4-MeS—Ph, R4=H, 1-cyclohexyl-2-hydroxy-2-(4-methylthiophenyl)-2,3-dihydro-1H-imidazo[1,2-a]pyrimidin-4-ium bromide] | 100 to 200 | 118 | 118 | – |
| OC1(c2ccc(Br)cc2)C[n+]2cccnc2N1C1CC1.[Br-] (stereo not shown) [R1=Cyclopropyl, R3=4-Br—Ph, R4=H, 1-cyclopropyl-2-hydroxy-2-(4-bromophenyl)-2,3-dihydro-1H-imidazo[1,2-a]-pyrimidin-4-ium bromide] | 25 to 50 | 27 | 27 | Influence on growth (S. Typhimurium ATCC14028 [3]): x |
| CCCCNc1nc(-c2ccc(F)cc2)c[nH]1 [R1=H, R2=Butyl, R3=H, R4=p-F—Ph] | – | – | – | IC50 (S. Typhimurium ATCC14028 [2]; [10]): 16 µM; IC50 [4]: 6 µM |
| Brc1ccc(-c2c[nH]c(NC3CCCC3)n2)cc1 [R1=H, R2=cyclopentyl, R3=H, R4=p-Br—Ph] | – | – | – | IC50 [1, 11]: 50 to 100 µM |
| Clc1ccc(-c2c[nH]c(NC3CCCC3)n2)cc1 [R1=H, R2=cyclopentyl, R3=H, R4=p-Cl—Ph] | – | – | – | IC50 [1, 11]: 45 µM; IC50 (S. Typhimurium ATCC14028 [2]; [10]): 4 µM |
| CC1[n+]2cccnc2N(c2ccccc2)C1(O)c1ccc(Br)cc1 (stereo not shown) [R1=Ph, R3=4-Br—Ph, R4=Me, 1-phenyl-2-hydroxy-2-(4-bromophenyl)-3-methyl-2,3-dihydro-1H-imidazo[1,2-a]pyrimidin-4-ium bromide] | 50 to 100 | 57.5 | 57.5 | – |
| CCCCN1c2nccc[n+]2CC1(O)C(c1ccccc1)c1ccccc1 (stereo not shown) [R1=n-butyl, R3=dimethylphenyl, R4=H, 1-butyl-2-hydroxy-2-(diphenyl-methyl)-2,3-dihydro-1H-imidazo[1,2-a]pyrimidin-4-ium bromide] | 50 to 100 | – | 72.1 | – |
| c1ccc(Sc2ccc3c(c2)OCO3)c(CNC2=NCCN2)c1 [Specs3-1] | – | – | – | IC50 (S. Typhimurium ATCC14028 [5]): 417 µM; IC50 (S. Typhimurium SL1344 [6]): 417 µM; IC50 (S. Typhimurium SL1344 [7]): ~65.9 µM; IC50 (S. Typhimurium ATCC14028 [2]; [12]): 42 µM |
| Fc1ccccc1Sc1ccccc1CNC1=NCCN1 [Specs3-3] | – | – | – | IC50 (S. Typhimurium ATCC14028 [5]): 265 µM; IC50 (S. Typhimurium SL1344 [6]): 265 µM; IC50 (S. Typhimurium SL1344 [7]): 68.1 µM; IC50 (S. Typhimurium ATCC14028 [2]; [12]): 32.9 µM |
